What was measured:
[1] = test system: Cannabis (Cs) apical cuttings; test: Plant growth regulators delivered with ONB in hydroponics, plant growth; format: in vivo, Cannabis sativa; settings: ONB compared to tap water as delivery system; 14 days hydroponics
Experimental: Hydroponic experiments were set up in glasshouse conditions: day temp. 25° C., night temp. 18° C., 16/8 h day/night and 150 μmol m^−2 s^−1 light intensity. Cannabis (Cs) apical cuttings were treated with Gibberellic acid A3 (GA3; Duchefa, G0907) at 12 mg/L final concentration, similar to Mansouri et al. (2011) or with DL-carnitine hydrochloride (Merck S7021474 Cas-No 461-05-2, 8.41774.0025) at 1 mM/L final concentration, as in Signem Oney-Birol (2019).
All solutions were prepared first in buckets, pH adjusted to 6.0. The liquid feed (Canna coco A+B) was added at the concentration: 4 mL of coco A and 4 mL of coco B per 1 L water; electric conductivity EC=2.0 mS/cm. Next the solutions were run through a fine bubble generator (Anzaikantetsu Co, AZ-FB-20ASVV) with a 0.75 standard litres per minute (SLPM) O2 flow and 800 L/H water flow. Each 25 L bucket was run for 30 min through the nozzle. EC and pH were checked and adjusted to the right level daily. Plants were grown in hydroponics for 14 days. Plant growth was monitored and compared to controls. Plant growth was determined by measurement of major growth parameters including plant height, whole plant fresh weight and number of stems. […]

lettuce (Lactuca sativa) = test: Ultrasonic fogging of leaves with air nanobubble water, fresh weight; format: in vivo; settings: var. Tango, 14 days, fog from air nanobubble water, source solution 1.65 mg/L
Experimental: Seedlings of various lettuce varieties (Lactuca sativa) were exposed to ultrasonic fog generated from water that contained air nanobubbles carrying MVOCs.
Albuterol Sulfate 98.5% (Spectrum Chemical, New Brunswick, NJ, USA) was diluted in tap water at 1.65 mg/L. Five litres was then placed in a container that was pressurized by an air compressor at 1.3 bar. Gas flow from the pressurized container was directed to a nanobubble generator installed in a recirculating flow of water totaling 60 L. After a minimum of 2 hr treatment, 4 L of nanobubble treated water was removed from the recirculating system and placed in a rectangular plastic reservoir with a total capacity of 6 L. A three head ultrasonic fog generator was then placed in the reservoir, and the reservoir was placed in an enclosed plant growth chamber. Seeds of lettuce (Lactuca sativa, var. Tango) were planted in 2.5 cm square cells filled with ProMix growing media. Upon shoot emergence, seedlings were placed in the growth chamber and fog treatments began. A ‘control’ group of plants was placed in a different section of the growth chamber that was not subjected to any treatment. Growing parameters within the chambers were maintained at levels suitable for the crop, including a photoperiod of 16 hr/day. […] After 14 days, all plants were harvested and fresh weight recorded.

Row | Molecule | Plant height and biomass [1] | Average increase in weight compared to control plants (lettuce (Lactuca sativa))
1 | C[N+](C)(C)CC(O)CC(=O)O.[Cl-] (racemic) [DL-carnitine, DL-carnitine hydrochloride] | Increased plant height and biomass | –
2 | C=C1C[C@]23C[C@@]1(O)CC[C@H]2[C@@]12C=C[C@H](O)[C@@](C)(C(=O)O1)[C@H]2[C@@H]3C(=O)O [gibberellic acid, Gibberellic acid A3] | Increased plant height and biomass | –
3 | Albuterol Sulfate | – | over 30%
